One test has as its target μ-opioid receptor (Homo sapiens (Human), UniProt P35372). The experiment in a line: μ-opioid receptor [35S]GTPγS functional assay, HEK-293 cells (Table 6). It is filed as biochemical. Summed up: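 [35S]GTPγS (0.20 nM) binding in HEK-293 membranes expressing recombinant receptor (0.026 mg/mL protein), with GDP (3 mM) and saponin, HEPES buffer pH 7.4, 30 min at about 25° C. Bound radioactivity collected by filtration and counted. Emax (%) expressed relative to DAMGO from sigmoidal dose-response fits.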

The target in a further test is κ-opioid receptor (Homo sapiens (Human), UniProt P41145). The test is described as follows: κ-opioid receptor [35S]GTPγS functional assay, HEK-293 cells (Table 6). Type of test: biochemical. As for the experimental part: κ-Opioid Receptor Functional Assay Procedures: Functional [^35S]GTPγS binding assays were conducted as follows. κ opioid receptor membrane solution was prepared by sequentially adding final concentrations of 0.026 μg/μl κ membrane protein (in-house), 10 μg/mL saponin, 3 μM GDP and 0.20 nM [^35S]GTPγS to binding buffer (100 mM NaCl, 10 mM MgCl2, 20 mM HEPES, pH 7.4) on ice. The prepared membrane solution (190 μl/well) was transferred to 96-shallow well polypropylene plates containing 10 μl of 20× concentrated stock solutions of agonist prepared in DMSO. Plates were incubated for 30 min at a temperature of about 25° C. with shaking. Reactions were terminated by rapid filtration onto 96-well Unifilter GF/B filter plates (Perkin Elmer, Shelton, Conn.) using a 96-well tissue harvester (Packard) and followed by three filtration washes with 200 μl ice-cold binding buffer (10 mM NaH2PO4, 10 mM Na2HPO4, pH 7.4). Filter plates were subsequently dried at 50° C. for 2-3 hours. Fifty μl/well scintillation cocktail (Perkin Elmer, Shelton, Conn.) was added and plates were counted in a Packard Top-Count for 1 min/well. […]
The following TABLE 6 provides results on the activity response of certain Compounds of the Invention at the μ- and κ-opioid receptors determined as described above using HEK-293 cells.

Test [1] addresses recombinant human kappa opioid receptor (κ) (Homo sapiens (Human), UniProt P41145). The test is described as follows: κ-opioid receptor radioligand binding assay ([3H]-U69,593). As to conditions: binding affinity. Here is the method:
κ-Opioid Receptor Binding Assay Procedures: Membranes from HEK-293 cells, CHO cells or U-2 OS cells expressing the recombinant human kappa opioid receptor (κ) were prepared by lysing cells in ice cold hypotonic buffer (2.5 mM MgCl2, 50 mM HEPES, pH 7.4) (10 mL/10 cm dish) followed by homogenization with a tissue grinder/Teflon pestle. Membranes from a cell line naturally expressing kappa opioid receptor can also be used. Membranes were collected by centrifugation at 30,000×g for 15 min at 4° C. and pellets were resuspended in hypotonic buffer to a final concentration of 1-3 mg/mL. Protein concentrations were determined using the BioRad protein assay reagent with bovine serum albumen as standard. Aliquots of κ receptor membranes were stored at −80° C.
Radioligand dose displacement assays used 0.4 nM [^3H]-U69,593 (GE Healthcare, Piscataway, N.J.; 40 Ci/mmole) with 15 μg membrane protein (recombinant opioid receptor expressed in HEK 293 cells; in-house prep) in a final volume of 200 μl binding buffer (5% DMSO, 50 mM Trizma base, pH 7.4). Non-specific binding was determined in the presence of 10 μM unlabeled naloxone or U69,593. All reactions were performed in 96-well polypropylene plates for 1 hour at a temperature of about 25° C. Binding reactions were terminated by rapid filtration onto 96-well Unifilter GF/C filter plates (Perkin Elmer, Shelton, Conn.) presoaked in 0.5% polyethylenimine (Sigma). Harvesting was performed using a 96-well tissue harvester (Perkin Elmer, Shelton, Conn.) followed by five filtration washes with 200 μl ice-cold binding buffer. Filter plates were subsequently dried at 50° C. for 1-2 hours. Fifty μl/well scintillation cocktail (Perkin Elmer, Shelton, Conn.) was added and plates were counted in a Packard Top-Count for 1 min/well.

With `CN1CC[C@]23C[C@H](C(=O)NCCc4ccccc4)C[C@@]2(O)[C@H]1Cc1ccc(O)cc13` [Compound 108, (2S,3aS,4R,9bS)-3a,8-dihydroxy-12-methyl-N-phenethyl-1,2,3,3a,4,5-hexahydro-4,9b-(epiminoethano)cyclo-penta[a]naphthalene-2-carboxamide], the Emax – broadly, the maximal effect, on the per cent scale that the assay sets – at μ-opioid receptor (relative to DAMGO) was 83.3 ± 5.17%; at κ-opioid receptor (relative to U69,593) it was 40.6 ± 3.3%. Also, the EC50 (in general, the concentration giving half of the maximal effect) at μ-opioid receptor (μ GTP) was determined as 12.4 ± 2.76 nM; on κ-opioid receptor (κ GTP), 138 ± 35 nM. In addition, the Ki (in general, the dissociation constant of the complex between target and ligand, obtained from inhibition or displacement) in test [1] was 9.29 ± 2.14 nM.

For the origin of these results see patent US9656962B2, “Ring-contracted morphinans and the use thereof” (Purdue Pharma L.P., priority 2013, dated 2017).
